Results: US7351708B2, “Pyrrolo [2,3-b] pyridine derivatives” (Hoffmann-La Roche Inc., priority 2005, dated 2008)

What follows are compounds tested against T1, histamine 3 receptor (H3R) (Homo sapiens, UniProt Q9Y5N1) (assay: Binding assay with 3H-(R)α-Methylhistamine (competition binding, membranes of the human HR3-CHO cell line)). Details: competition against 3H(R)α-Methylhistamine (1 nM), Ki calculated from IC50 by Cheng-Prusoff.
T1 construct: expressed in transfected cells; host or cells: CHO cells (HR3-CHO cell line), membranes
T1 sequence (Q9Y5N1 whole entry): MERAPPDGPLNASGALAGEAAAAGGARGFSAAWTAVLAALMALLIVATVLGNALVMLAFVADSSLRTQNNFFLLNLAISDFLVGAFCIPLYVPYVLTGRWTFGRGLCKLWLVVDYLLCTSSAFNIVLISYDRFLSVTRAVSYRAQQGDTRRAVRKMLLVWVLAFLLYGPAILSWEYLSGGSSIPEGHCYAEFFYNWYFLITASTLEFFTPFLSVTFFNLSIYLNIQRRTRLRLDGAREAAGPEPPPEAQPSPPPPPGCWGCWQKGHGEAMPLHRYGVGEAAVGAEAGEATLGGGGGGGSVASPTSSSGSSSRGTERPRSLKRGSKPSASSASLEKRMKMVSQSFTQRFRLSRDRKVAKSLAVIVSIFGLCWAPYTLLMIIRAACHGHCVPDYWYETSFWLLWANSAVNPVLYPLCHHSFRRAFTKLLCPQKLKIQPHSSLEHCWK
Experimental: Binding Assay with ^3H—(R)α-Methylhistamine
Saturation binding experiments were performed using HR3-CHO membranes prepared as described in Takahashi, K, Tokita, S., Kotani, H. (2003) J. Pharmacol. Exp. Therapeutics 307, 213-218.
An appropriate amount of membrane (60 to 80 μg protein/well) was incubated with increasing concentrations of ^3H(R)α-Methylhistamine di-hydrochloride (0.10 to 10 nM). Non specific binding was determined using a 200 fold excess of cold (R)α-Methylhistamine dihydrobromide (500 nM final concentration). The incubation was carried out at room temperature (in deep-well plates shaking for three hours). The final volume in each well was 250 μl. The incubation was followed by rapid filtration on GF/B filters (pre-soaked with 100 μl of 0.5% PEI in Tris 50 mM shaking at 200 rpm for two hours). The filtration was made using a cell-harvester and the filter plates were then washed five times with ice cold washing buffer containing 0.5 M NaCl. After harvesting, the plates were dried at 55° C. for 60 min, then we added scintillation fluid (Microscint 40, 40 microl in each well) and the amount of radioactivity on the filter was determined in Packard top-counter after shaking the plates for two hours at 200 rpm at room temperature.
Binding Buffer: 50 mM Tris-HCl pH 7.4 and 5 mM MgCl2x 6H2O pH 7.4. Washing Buffer: 50 mM Tris-HCl pH 7.4 and 5 mM MgCl2x6H2O and 0.5 M NaCl pH 7.4.
Indirect measurement of affinity of H3R inverse agonists: twelve increasing concentrations (ranging from 10 μM to 0.3 nM) of the selected compounds were always tested in competition binding experiments using membrane of the human HR3-CHO cell line. An appropriate amount of protein, e.g. approximately 500 cpm binding of RAMH at Kd, were incubated for 1 hour at room temperature in 250 μl final volume in 96-well plates in presence of ^3H(R)α-Methylhistamine (1 nM final concentration=Kd). […]
All compounds were tested at a single concentration in duplicates. […] Ki's were calculated from IC50 based on Cheng-Prusoff equation (Cheng, Y, Prusoff, WH (1973) Biochem Pharmacol 22, 3099-3108).

Row | SMILES | Ki
1 | O=C(c1cc2ccc(N3CCN(C4CCCC4)CC3)nc2[nH]1)N1CCCCC1 [Example 1, [6-(4-Cyclopentyl-piperazin-1-yl)-1H-pyrrolo[2,3-b]pyridin-2-yl]-piperidin-1-yl-methanone] | 0.0484 µM
2 | O=C(NC1CCCCC1)c1cc2ccc(N3CCN(C4CCCC4)CC3)nc2[nH]1 [Example 4, 6-(4-cyclopentyl-piperazin-1-yl)-1H-pyrrolo[2,3-b]pyridine-2-carboxylic acid cyclohexylamide] | 0.0227 µM
3 | O=C(c1cc2ccc(N3CCN(C4CCCC4)CC3)nc2[nH]1)N1CCC(O)C1 (stereo not drawn) [Example 8, [6-(4-cyclopentyl-piperazin-1-yl)-1H-pyrrolo[2,3-b]pyridin-2-yl]-(3-hydroxy-pyrrolidin-1-yl)-methanone] | 0.0831 µM
